Measurements from patent US12049450B2, “Pyridyloxy-carboxylate derivative and preparation method therefor, herbicidal composition, and use” (Qingdao Kingagroot Chemical Compound Co., Ltd., priority 2018, dated 2024).

How the values were obtained:
Assay in all cases: Post-emergence test experiment (greenhouse pot, spray at 2-3 leaf stage)
Type in all cases: in vivo
Details in all cases: 1000 g/ha; post-emergence spray at 2-3 leaf stage; assessed after 3 weeks; fresh weight inhibition rate
[1] = tested on: Echinochloa crusgalli
Procedure, shortened: (§1)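 Activity graded levels 0-5 by fresh-weight inhibition (level 5 above 85%, level 0 below 5%), assessed 3 weeks after treatment. Plants grown in greenhouse pots were sprayed post-emergence at 2-3 leaves using acetone/tween-80 solutions with methyl oleate synergist (1.5 L/ha).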

[2] = tested on: Galium spurium
Procedure, shortened: as §1

[3] = tested on: Monochoria vaginalis
Procedure, shortened: as §1

[4] = tested on: Digitaria sanguinalis
Procedure, shortened: as §1

[5] = tested on: Abutilon theophrasti
Procedure, shortened: as §1

Compound | Activity level (growth inhibition rate) Echinochloa crusgalli [1] | Activity level (growth inhibition rate) Galium spurium [2] | Activity level (growth inhibition rate) Monochoria Vaginalis [3] | Activity level (growth inhibition rate) Digitaria sanguinalis [4] | Activity level (growth inhibition rate) Abutilon theophrasti [5]
CC(Oc1nc(F)c(Cl)c(N)c1Cl)C(=O)OCc1ccc2nccnc2c1 (stereo not drawn) [Compound 186] | 5 (Level 5: the growth inhibition rate is greater than 85%) | 5 (Level 5: the growth inhibition rate is greater than 85%) | 5 (Level 5: the growth inhibition rate is greater than 85%) | 5 (Level 5: the growth inhibition rate is greater than 85%) | 5 (Level 5: the growth inhibition rate is greater than 85%)
CC(Oc1nc(F)c(Cl)c(N)c1Cl)C(=O)OCc1ccsc1 (stereo not drawn) [Compound 215] | 5 (Level 5: the growth inhibition rate is greater than 85%) | 5 (Level 5: the growth inhibition rate is greater than 85%) | 5 (Level 5: the growth inhibition rate is greater than 85%) | 5 (Level 5: the growth inhibition rate is greater than 85%) | 5 (Level 5: the growth inhibition rate is greater than 85%)
CC(Oc1nc(F)c(Cl)c(N)c1Cl)C(=O)OCc1cccc(O)c1 (stereo not drawn) [Compound 89] | 5 (Level 5: the growth inhibition rate is greater than 85%) | 5 (Level 5: the growth inhibition rate is greater than 85%) | 5 (Level 5: the growth inhibition rate is greater than 85%) | 5 (Level 5: the growth inhibition rate is greater than 85%) | 5 (Level 5: the growth inhibition rate is greater than 85%)
CC(Oc1nc(F)c(Cl)c(N)c1Cl)C(=O)SCc1ccc(C#N)cc1 (stereo not drawn) [Compound 225] | 5 (Level 5: the growth inhibition rate is greater than 85%) | 5 (Level 5: the growth inhibition rate is greater than 85%) | 5 (Level 5: the growth inhibition rate is greater than 85%) | 5 (Level 5: the growth inhibition rate is greater than 85%) | 5 (Level 5: the growth inhibition rate is greater than 85%)
CC(Oc1nc(F)c(Cl)c(N)c1Cl)C(=O)OCc1ncncn1 (stereo not drawn) [Compound 126] | 5 (Level 5: the growth inhibition rate is greater than 85%) | 5 (Level 5: the growth inhibition rate is greater than 85%) | 5 (Level 5: the growth inhibition rate is greater than 85%) | 5 (Level 5: the growth inhibition rate is greater than 85%) | 5 (Level 5: the growth inhibition rate is greater than 85%)
CC(Oc1nc(F)c(Cl)c(N)c1Cl)C(=O)OCCc1cccc2cnncc12 (stereo not drawn) [Compound 187] | 5 (Level 5: the growth inhibition rate is greater than 85%) | 5 (Level 5: the growth inhibition rate is greater than 85%) | 5 (Level 5: the growth inhibition rate is greater than 85%) | 5 (Level 5: the growth inhibition rate is greater than 85%) | 5 (Level 5: the growth inhibition rate is greater than 85%)
CC(Oc1nc(F)c(Cl)c(N)c1Cl)C(=O)OCc1ccc(F)cc1 (stereo not drawn) [Compound 199] | 5 (Level 5: the growth inhibition rate is greater than 85%) | 5 (Level 5: the growth inhibition rate is greater than 85%) | 5 (Level 5: the growth inhibition rate is greater than 85%) | 5 (Level 5: the growth inhibition rate is greater than 85%) | 5 (Level 5: the growth inhibition rate is greater than 85%)
CC(Oc1nc(F)c(Cl)c(N)c1Cl)C(=O)OCc1cccnc1 (racemic) [Compound 116] | 5 (Level 5: the growth inhibition rate is greater than 85%) | 5 (Level 5: the growth inhibition rate is greater than 85%) | 5 (Level 5: the growth inhibition rate is greater than 85%) | 5 (Level 5: the growth inhibition rate is greater than 85%) | 5 (Level 5: the growth inhibition rate is greater than 85%)
CC(Oc1nc(F)c(Cl)c(N)c1Cl)C(=O)OCc1ccc2c(c1)OCO2 (stereo not drawn) [Compound 176] | 5 (Level 5: the growth inhibition rate is greater than 85%) | 5 (Level 5: the growth inhibition rate is greater than 85%) | 5 (Level 5: the growth inhibition rate is greater than 85%) | 5 (Level 5: the growth inhibition rate is greater than 85%) | 5 (Level 5: the growth inhibition rate is greater than 85%)
C/C=C/c1ccc(CSC(=O)C(C)Oc2nc(F)c(Cl)c(N)c2Cl)cc1 (stereo not drawn) [Compound 73] | 5 (Level 5: the growth inhibition rate is greater than 85%) | 5 (Level 5: the growth inhibition rate is greater than 85%) | 5 (Level 5: the growth inhibition rate is greater than 85%) | 5 (Level 5: the growth inhibition rate is greater than 85%) | 5 (Level 5: the growth inhibition rate is greater than 85%)
CC(Oc1nc(F)c(Cl)c(N)c1Cl)C(=O)SCc1cncs1 (stereo not drawn) [Compound 159] | 5 (Level 5: the growth inhibition rate is greater than 85%) | 5 (Level 5: the growth inhibition rate is greater than 85%) | 5 (Level 5: the growth inhibition rate is greater than 85%) | 5 (Level 5: the growth inhibition rate is greater than 85%) | 5 (Level 5: the growth inhibition rate is greater than 85%)
CC(Oc1nc(F)c(Cl)c(N)c1Cl)C(=O)OCc1cc(F)ccc1F (stereo not drawn) [Compound 79] | 5 (Level 5: the growth inhibition rate is greater than 85%) | 5 (Level 5: the growth inhibition rate is greater than 85%) | 5 (Level 5: the growth inhibition rate is greater than 85%) | 5 (Level 5: the growth inhibition rate is greater than 85%) | 5 (Level 5: the growth inhibition rate is greater than 85%)
CC(Oc1nc(F)c(Cl)c(N)c1Cl)C(=O)OCc1cnns1 (stereo not drawn) [Compound 166] | 5 (Level 5: the growth inhibition rate is greater than 85%) | 5 (Level 5: the growth inhibition rate is greater than 85%) | 5 (Level 5: the growth inhibition rate is greater than 85%) | 5 (Level 5: the growth inhibition rate is greater than 85%) | 5 (Level 5: the growth inhibition rate is greater than 85%)
CC(=O)Cc1ccc(COC(=O)C(C)Oc2nc(F)c(Cl)c(N)c2Cl)cc1 (stereo not drawn) [Compound 99] | 5 (Level 5: the growth inhibition rate is greater than 85%) | 5 (Level 5: the growth inhibition rate is greater than 85%) | 5 (Level 5: the growth inhibition rate is greater than 85%) | 5 (Level 5: the growth inhibition rate is greater than 85%) | 5 (Level 5: the growth inhibition rate is greater than 85%)
CC(Oc1nc(F)c(Cl)c(N)c1Cl)C(=O)OCc1cc([N+](=O)[O-])ccc1F (stereo not drawn) [Compound 86] | 5 (Level 5: the growth inhibition rate is greater than 85%) | 5 (Level 5: the growth inhibition rate is greater than 85%) | 5 (Level 5: the growth inhibition rate is greater than 85%) | 5 (Level 5: the growth inhibition rate is greater than 85%) | 5 (Level 5: the growth inhibition rate is greater than 85%)
